≈ marks a conversion by molar mass, not a printed value.
Tests used:
[1] = system: C. parapsilosis (ATCC 22019); assay: Anticandidal broth microdilution (EUCAST EDef 7.1), resazurin fluorometric readout; type: cell-based; settings: Lodderomyces parapsilosis, ATCC22019; ATCC 22019, RPMI pH 7, 24 h incubation; read-out: MIC50 C. parapsilopsis
Procedure: (§1) Synthesized compounds (5a-5ad) were evaluated for anticandidal activity against C. albicans (ATCC 24433), C. krusei (ATCC 6258), C. parapsilosis (ATCC 22019) and C. [NT] 90030). MIC50 values were evaluated via fluorometric measurements, using resazurin solution [56, 57]. […] [NT] 90030). MIC readings were carried out twice for each chemical agent. The yeasts were maintained in RPMI after overnight incubation at 37 °C. The inocula of test microorganisms adjusted to match the turbidity of a MacFarland 0.5 standard tube as determined with a spectrophotometer and the final inoculum size was 0.5-2.5 × 10^5 cfu/mL for antifungal assay. Testing was carried out in RPMI at pH = 7 and the two-fold serial dilutions technique was applied. The last well on the microplates containing only inoculated broth was kept as controls and the last well with no growth of microorganism was recorded to represent the MIC50 expressed in μg/mL. For the antifungal assays, the compounds were dissolved in DMSO. […] The completed plates were incubated for 24 h. At the end of the incubation, resazurin (20 μg/mL) was added into each well to control whether the growth in wells. Then, plates were allowed to incubate for 2 h. MIC50 values were determined using a microplate reader at […].

C. albicans (ATCC 24433) = assay: as above; type: cell-based; settings: Candida albicans, ATCC24433; ATCC 24433, RPMI pH 7, 24 h incubation
Procedure: as §1

C. glabrata (ATCC 90030) = assay: as above; type: cell-based; settings: Nakaseomyces glabratus, ATCC90030; ATCC 90030, RPMI pH 7, 24 h incubation
Procedure: as §1

C. krusei (ATCC 6258) = assay: as above; type: cell-based; settings: Pichia kudriavzevii, ATCC6258; ATCC 6258, RPMI pH 7, 24 h incubation
Procedure: as §1

Candida species = assay: Anticandidal broth microdilution, results summarised over all strains; type: cell-based; settings: summary over all four Candida strains
Procedure: as §1

Row | MIC50 [1] [mg/L] | MIC50 (C. albicans (ATCC 24433)) [mg/L] | MIC50 (C. glabrata (ATCC 90030)) [mg/L] | MIC50 (C. krusei (ATCC 6258)) [mg/L] | melting point [°C] | MIC50 (Candida species; Candida, read-out: MIC50 against Candida species) [mg/L] | SMILES | anticandidal activity against Candida strains (in words) (Candida species)
1 | 1.56 (≈ 2.96 µM) | 1.56 (≈ 2.96 µM) | 1.56 (≈ 2.96 µM) | 1.56 (≈ 2.96 µM) | 223.3 | 1.56 to 3.12 (≈ 2.96 to 5.93 µM) | CCn1c(SCC(=O)c2ccc(Cl)cc2Cl)nnc1-c1ccc(-c2nc3ccc(F)cc3[nH]2)cc1 [Compound 5ac, 1-(2,4-Dichlorophenyl)-2-((4-ethyl-5-(4-(6-fluoro-1H-benzimidazol-2-yl)phenyl)-4H-1,2,4-triazol-3-yl)thio)ethan-1-one] | –
2 | 50 (≈ 109 µM) | 25 (≈ 54.4 µM) | 50 (≈ 109 µM) | 50 (≈ 109 µM) | 280.6 | – | Cn1c(SCC(=O)c2ccc(Cl)cc2)nnc1-c1ccc(-c2nc3ccccc3[nH]2)cc1 [Compound 5b, 2-((5-(4-(1H-Benzimidazol-2-yl)phenyl)-4-methyl-4H-1,2,4-triazol-3-yl)thio)-1-(4-chlorophenyl)ethan-1-one] | –
3 | 12.5 (≈ 28.2 µM) | 12.5 (≈ 28.2 µM) | 25 (≈ 56.4 µM) | 25 (≈ 56.4 µM) | 259.8 | – | Cn1c(SCC(=O)c2ccc(F)cc2)nnc1-c1ccc(-c2nc3ccccc3[nH]2)cc1 [Compound 5c, 2-((5-(4-(1H-Benzimidazol-2-yl)phenyl)-4-methyl-4H-1,2,4-triazol-3-yl)thio)-1-(4-fluorophenyl)ethan-1-one] | –
4 | 25 (≈ 50.6 µM) | 25 (≈ 50.6 µM) | 50 (≈ 101 µM) | 50 (≈ 101 µM) | 234.7 | – | Cn1c(SCC(=O)c2ccc(Cl)cc2Cl)nnc1-c1ccc(-c2nc3ccccc3[nH]2)cc1 [Compound 5d, 2-((5-(4-(1H-Benzimidazol-2-yl)phenyl)-4-methyl-4H-1,2,4-triazol-3-yl)thio)-1-(2,4-dichlorophenyl)ethan-1-one] | –
5 | 50 (≈ 105 µM) | 25 (≈ 52.7 µM) | 50 (≈ 105 µM) | 25 (≈ 52.7 µM) | 242.6 | – | CCn1c(SCC(=O)c2ccc(Cl)cc2)nnc1-c1ccc(-c2nc3ccccc3[nH]2)cc1 [Compound 5g, 2-((5-(4-(1H-Benzimidazol-2-yl)phenyl)-4-ethyl-4H-1,2,4-triazol-3-yl)thio)-1-(4-chlorophenyl)ethan-1-one] | –
6 | 50 (≈ 98.3 µM) | 25 (≈ 49.2 µM) | 50 (≈ 98.3 µM) | 50 (≈ 98.3 µM) | 221.7 | – | CCn1c(SCC(=O)c2ccc(Cl)cc2Cl)nnc1-c1ccc(-c2nc3ccccc3[nH]2)cc1 [Compound 5i, 2-((5-(4-(1H-Benzimidazol-2-yl)phenyl)-4-ethyl-4H-1,2,4-triazol-3-yl)thio)-1-(2,4-dichlorophenyl)ethan-1-one] | –
7 | 25 (≈ 52.6 µM) | 12.5 (≈ 26.3 µM) | 25 (≈ 52.6 µM) | 12.5 (≈ 26.3 µM) | 238.2 | – | CCn1c(SCC(=O)c2ccc(F)cc2F)nnc1-c1ccc(-c2nc3ccccc3[nH]2)cc1 [Compound 5j, 2-((5-(4-(1H-Benzimidazol-2-yl)phenyl)-4-ethyl-4H-1,2,4-triazol-3-yl)thio)-1-(2,4-difluorophenyl)ethan-1-one] | –

More lines, now with the values behind:

Row | SMILES | MIC50 [1] [mg/L] | MIC50 (C. albicans (ATCC 24433)) [mg/L] | MIC50 (C. glabrata (ATCC 90030)) [mg/L] | MIC50 (C. krusei (ATCC 6258)) [mg/L] | melting point [°C] | MIC50 (Candida species; Candida, read-out: MIC50 against Candida species) [mg/L] | anticandidal activity against Candida strains (in words) (Candida species)
8 | Cn1c(SCC(=O)c2ccccc2)nnc1-c1ccc(-c2nc3ccccc3[nH]2)cc1 [Compound 5a, 2-((5-(4-(1H-Benzimidazol-2-yl)phenyl)-4-methyl-4H-1,2,4-triazol-3-yl)thio)-1-phenylethan-1-one] | 100 (≈ 235 µM) | 100 (≈ 235 µM) | 100 (≈ 235 µM) | 100 (≈ 235 µM) | 269.5 | – | –
9 | CCn1c(SCC(=O)c2ccc(Cl)cc2)nnc1-c1ccc(-c2nc3ccc(F)cc3[nH]2)cc1 [Compound 5aa, 1-(4-Chlorophenyl)-2-((4-ethyl-5-(4-(6-fluoro-1H-benzimidazol-2-yl)phenyl)-4H-1,2,4-triazol-3-yl)thio)ethan-1-one] | 12.5 (≈ 25.4 µM) | 6.25 (≈ 12.7 µM) | 12.5 (≈ 25.4 µM) | 6.25 (≈ 12.7 µM) | 241.4 | – | did not show strong activity
10 | Cn1c(SCC(=O)c2ccc(F)cc2F)nnc1-c1ccc(-c2nc3ccccc3[nH]2)cc1 [Compound 5e, 2-((5-(4-(1H-Benzimidazol-2-yl)phenyl)-4-methyl-4H-1,2,4-triazol-3-yl)thio)-1-(2,4-difluorophenyl)ethan-1-one] | 25 (≈ 54.2 µM) | 12.5 (≈ 27.1 µM) | 25 (≈ 54.2 µM) | 25 (≈ 54.2 µM) | 256.2 | – | –
11 | CCn1c(SCC(=O)c2ccccc2)nnc1-c1ccc(-c2nc3ccccc3[nH]2)cc1 [Compound 5f, 2-((5-(4-(1H-Benzimidazol-2-yl)phenyl)-4-ethyl-4H-1,2,4-triazol-3-yl)thio)-1-phenylethan-1-one] | 100 (≈ 228 µM) | 100 (≈ 228 µM) | 100 (≈ 228 µM) | 100 (≈ 228 µM) | 220.9 | – | –
12 | CCn1c(SCC(=O)c2ccc(F)cc2)nnc1-c1ccc(-c2nc3ccccc3[nH]2)cc1 [Compound 5h, 2-((5-(4-(1H-Benzimidazol-2-yl)phenyl)-4-ethyl-4H-1,2,4-triazol-3-yl)thio)-1-(4-fluorophenyl)ethan-1-one] | 25 (≈ 54.6 µM) | 12.5 (≈ 27.3 µM) | 25 (≈ 54.6 µM) | 12.5 (≈ 27.3 µM) | 231.3 | – | –
13 | Cn1c(SCC(=O)c2ccccc2)nnc1-c1ccc(-c2nc3ccc(Cl)cc3[nH]2)cc1 [Compound 5k, 2-((5-(4-(6-Chloro-1H-benzimidazol-2-yl)phenyl)-4-methyl-4H-1,2,4-triazol-3-yl)thio)-1-phenylethan-1-one] | 12.5 (≈ 27.2 µM) | 12.5 (≈ 27.2 µM) | 25 (≈ 54.4 µM) | 25 (≈ 54.4 µM) | 260 | – | –
14 | Cn1c(SCC(=O)c2ccc(Cl)cc2)nnc1-c1ccc(-c2nc3ccc(Cl)cc3[nH]2)cc1 [Compound 5l, 2-((5-(4-(6-Chloro-1H-benzimidazol-2-yl)phenyl)-4-methyl-4H-1,2,4-triazol-3-yl)thio)-1-(4-chlorophenyl)ethan-1-one] | 12.5 (≈ 25.3 µM) | 6.25 (≈ 12.6 µM) | 12.5 (≈ 25.3 µM) | 6.25 (≈ 12.6 µM) | 236.9 | – | –
15 | Cn1c(SCC(=O)c2ccc(Cl)cc2Cl)nnc1-c1ccc(-c2nc3ccc(F)cc3[nH]2)cc1 [Compound 5x, 1-(2,4-Dichlorophenyl)-2-((5-(4-(6-fluoro-1H-benzimidazol-2-yl)phenyl)-4-methyl-4H-1,2,4-triazol-3-yl)thio)ethan-1-one] | 3.12 (≈ 6.09 µM) | 3.12 (≈ 6.09 µM) | 1.56 (≈ 3.04 µM) | 3.12 (≈ 6.09 µM) | 228.5 | – | –
16 | CCn1c(SCC(=O)c2ccccc2)nnc1-c1ccc(-c2nc3ccc(F)cc3[nH]2)cc1 [Compound 5z, 2-((4-Ethyl-5-(4-(6-fluoro-1H-benzimidazol-2-yl)phenyl)-4H-1,2,4-triazol-3-yl)thio)-1-phenylethan-1-one] | 50 (≈ 109 µM) | 12.5 (≈ 27.3 µM) | 25 (≈ 54.6 µM) | 50 (≈ 109 µM) | 253.6 | – | –
17 | OC(Cn1cncn1)(Cn1cncn1)c1ccc(F)cc1F [Fluconazole, reference compound] | 0.78 (≈ 2.55 µM) | 0.78 (≈ 2.55 µM) | 1.56 (≈ 5.09 µM) | 1.56 (≈ 5.09 µM) | – | – | –
18 | CC(=O)N1CCN(c2ccc(OCC3COC(Cn4ccnc4)(c4ccc(Cl)cc4Cl)O3)cc2)CC1 (stereo not drawn) [Ketoconazole, reference compound] | 1.56 (≈ 2.94 µM) | 0.78 (≈ 1.47 µM) | 1.56 (≈ 2.94 µM) | 1.56 (≈ 2.94 µM) | – | – | –

Source: article PMC6154534, “New Benzimidazole-1,2,4-Triazole Hybrid Compounds: Synthesis, Anticandidal Activity and Cytotoxicity Evaluation” (Molecules : A Journal of Synthetic Chemistry and Natural …, 2017)
